The values that follow come from US20090238792A1, “SUPPRESSION OF POSTOPERATIVE ILEUS” (University of Pittsburgh of the Commonwealth System of …, priority 2007, published 2009).

One test concerns IL-6 mRNA. Description: Real-time RT-PCR of muscularis IL-6 mRNA 3 hours postoperatively. The conditions noted are these: surgically manipulated rats, 3 hours postoperatively. The class given is in vivo, rat. On the procedure:
(§1) Age matched animals treated with vehicle (normal saline) or valine (263.5 mg/kg, osmotic control) at appropriate time points and at equal volumes served as controls.
(§2) The rodent intestine was subjected to a standardized degree of surgical manipulation as described previously (14). Rats were anesthetized by isoflurane inhalation and the abdomen was opened by a midline laparotomy. The cecum was eventrated and laid out onto a moist gauze. Then, the intestine was inspected along its length and gently compressed using moist cotton applicators. The midline incision was closed by two layers of continuous sutures. All operative procedures were performed under sterile conditions with the intestine being handled only by instruments and never touched directly. Animals were killed at specific time points postoperatively by isoflurane anesthesia inhalation overdose and heart incision.
mRNA Expression Analysis: Postoperative mediator mRNA expressions in the small intestinal muscularis were analyzed using SYBR Green two-step real-time RT-PCR as previously described, (N=4-6). […] Total mRNA extraction was performed using the guanidium-thiocyanate phenol-chloroform extraction method. Equal aliquots (200 ng) of total RNA from each sample, quantified by spectrophotometer, were processed for complimentary DNA (cDNA) synthesis. Primer sequences were used as described previously (tumor necrosis factor-a, TNF-a) (35), or designed according to published sequences 36-41, (GenBank accession numbers: NM_017008 [glyceraldehyde phosphate dehydrogenase (GAPDH)], AF233596 [cyclo-oxygenase-2 (COX-2)], NM_012967 [intercellular adhesion molecule-1 (ICAM-1)], M26744 [interleukin-6 (IL-6)] and NM_012611 [inducible nitric oxide synthase (iNOS)]), using Primer Express software (PE Applied Biosystems, Foster City, Calif.) and purchased from Life Technologies (Rockville, Md.). GAPDH was used as an endogenous control. The efficiency and equality of the real-time PCR primer pairs were determined by amplifying serial dilutions of muscularis cDNA. For each target gene different MgCl2 (3 to 5 mM) concentrations were tested to optimize the PCR amplification. […] Relative quantification was performed using the comparative CT method as described by Schmittgen et al. (42).
Methods: ACI-rats (180-220 g) underwent standardized surgical manipulation of the intestine. […] Postoperative mediator mRNA expression in the intestinal muscularis was determined by real-time RT PCR. […] Nitrite production was measured in muscularis cultures. In vivo transit of FITC-dextran was measured using geometric center analysis (GC). In vitro circular muscle contractility was assessed in a standard organ bath. […]

Test [1] relates to jejunal circular smooth muscle. Description: In vitro bethanechol stimulated contractile activity of jejunal circular muscle strips. The conditions noted are these: manipulated rats, 170 mg/kg glycine or valine pretreatment, 100 mM bethanechol; control 3.2±0.2, SM vehicle 1.9±0.1. The test is classed as in vivo, rat. As to the method:
as §1, §2
Mechanical in vitro activity of the rat mid-jejunum was evaluated at 24 hours postoperatively using smooth muscle strips of the circular muscularis as described previously (rats: N=5-11) (14). After dissection and a 30 minute equilibration period, the individual muscles were incrementally stretched to L0. Then after recording spontaneous contractility for 30 minutes, dose response curves were generated using increasing concentrations of the muscarinic agonist bethanechol ([…]) for 10 minutes and intervening wash periods (KRB) of 10 minutes. The contractile response was recorded and analyzed as g/mm2/sec over a 10 minute period.
(§3) Methods: ACI-rats (180-220 g) underwent standardized surgical manipulation of the intestine. […] Age matched animals treated with vehicle or valine (osmotic control) at appropriate time points and at equal volumes served as controls. […] Postoperative mediator mRNA expression in the intestinal muscularis was determined by real-time RT PCR. Leukocyte extravasation was investigated in muscularis whole-mounts. Nitrite production was measured in muscularis cultures. In vivo transit of FITC-dextran was measured using geometric center analysis (GC). In vitro circular muscle contractility was assessed in a standard organ bath. Statistical analysis: unpaired Student t test, p<0.05, mean±SEM.

In test [2] the test system is rats with surgical manipulation of the intestine. Description: Rat in vivo gastrointestinal transit of fluorescein-labeled dextran (geometric center). The conditions noted are these: surgically manipulated rats, 24 h postoperatively, i.v. pretreatment 1 h before surgery; glycine 170 mg/kg, valine 263.5 mg/kg; SM vehicle GC=5.2±0.7. On the procedure:
as §1, §2, §3

The subject of test [3] is MPO positive leukocytes in the intestinal muscularis. Description: Myeloperoxidase (MPO) histochemistry: leukocyte infiltration in muscularis whole-mounts. The test is classed as in vivo, rat. The conditions noted are these: manipulated rats, 24 h postoperatively; glycine 170 mg/kg or valine (263.5 mg/kg); SM vehicle 95±6.4. On the procedure:
as §1, §2
Histochemistry and Immunohistochemistry: Leukocyte infiltration was quantified on rat whole-mounts of the intestinal muscularis as described previously (N=6-8) (43). Myeloperoxidase (MPO) positive cells were detected using a mixture of 30 mg Hanker-Yates reagent, 30 ml KRB and […] 3% hydrogen peroxide for 10 minutes. Leukocytes were counted in 5 randomly chosen areas in each specimen (3 specimen per animal) at a magnification of 200×.
as §3

In test [4] the test system is prostanoids. The test is described as follows: Prostanoid release (ELISA) from organ cultured muscularis. The conditions noted are these: manipulated rats, glycine 170 mg/kg or valine. The test is classed as in vivo, rat. On the procedure:
Age matched animals treated with vehicle (normal saline) or valine (263.5 mg/kg, osmotic control) at appropriate time points and at equal volumes served as controls. The rodent intestine was subjected to a standardized degree of surgical manipulation as described previously (14). Rats were anesthetized by isoflurane inhalation and the abdomen was opened by a midline laparotomy. The cecum was eventrated and laid out onto a moist gauze. Then, the intestine was inspected along its length and gently compressed using moist cotton applicators. The midline incision was closed by two layers of continuous sutures. All operative procedures were performed under sterile conditions with the intestine being handled only by instruments and never touched directly. Animals were killed at specific time points postoperatively by isoflurane anesthesia inhalation overdose and heart incision. The synthesis of prostanoids released into the tissue culture supernatant over a period of 24 hours was assayed by ELISA. After incubation the culture median and tissue was inspected, 500 μL aliquots of supernatant were frozen in liquid nitrogen and stored at −80° C. The muscle tissue was blotted dry and weighed. Culture supernatants were assayed for the measurement of prostaglandin secretion by enzyme immunoassay (Cayman Chemicals, Ann Arbor, Mich.). The ELISA was carried out in a 1:10 and 1:30 dilution. The assay was corrected for wet tissue weights and the prostaglandin ELISA kit sensitivity was 20 pg/ml.
A general note: In an ELISA, binding on a coated surface is turned into a signal by an enzyme label.

Another test concerns nitrite (nitric oxide). The test is described as follows: Nitrite release (Griess reaction) from organ cultured muscularis. The test is classed as in vivo, rat. The conditions noted are these: manipulated rats, glycine 170 mg/kg or valine. As to the method: as §1, §2
Tissue culture and determination of nitrite and prostanoid release in supernatant: The rat small intestine and colon were processed for tissue culture at 24 hours as described previously, (N=5-8) (25). Briefly, the muscularis was isolated by stripping the muscularis from the mucosa and then cut into small pieces and washed twice in Hank's balanced salt solution (HBSS) with 100 U/ml penicillin G and 100 μg/ml streptomycin. Aliquots of muscularis ([…]) were incubated (37° C., 5% CO2) in 6-well tissue culture plates containing 3 ml of supplemented Dulbecco's modified Eagle medium (DMEM)-F12 with 100 U/ml penicillin G and 100 μg/ml streptomycin. After an incubation period of 24 hours, 500 μl aliquots of supernatant were collected, frozen in liquid nitrogen and stored at −80° C. The muscle tissue was blotted dry, and the weight was estimated. To estimate the generation of NO from the intestinal muscularis, nitrite production was measured by the Griess reaction (44). Supernatant from the tissue culture was mixed with equal amount of Griess reagent (0.1% N-(1-naphtyl)ethyl-enediamine dihydrochloride and 1% sulfanilamide in 6% phosphoric acid; 1:1) and incubated at room temperature for 10 minutes. The absorbance at 550 nm was measured with a microplate reader and compared with standard prepared from serial dilutions of sodium nitrite. Each standard and supernatant sample was analyzed in duplicate, and the mean value of nitrite production was normalized to the tissue weight.
as §3
A general note: Nitrite, measured by Griess reagent, commonly stands in for NO production.

Test [5] relates to GM-CSF, VEGF, IL-1α, IL-6, MCP-1 and MIP-1α. Description: Luminex mediator release from muscularis, IL-10 treatment. The test is classed as in vivo, mice. The conditions noted are these: SM + IL-10 vs SM. As to the method: (§4) Methods: Mice were subjected to surgical intestinal manipulation (SM) to induce ileus. Before and after animals were treated with IL-10 (12.5 μg/kg, s.c.). Gastrointestinal transit and organ bath measured motility. Histochemistry on jejunal muscularis whole-mounts quantified neutrophil recruitment. Muscularis mediator expressions were measured by RT-PCR, Griess reaction, ELISA and Luminex (N=4 each).

Test [6] deals with muscularis neutrophil recruitment. The test is described as follows: Histochemistry on jejunal muscularis whole-mounts: neutrophil recruitment, IL-10 treatment. The conditions noted are these: IL-10 treatment compared to SM with vehicle. The class given is in vivo, mice. As to the method:
as §4

Test [7] has as its system IL-6, IL-1β and MCP 1 mRNAs. The test is described as follows: RT-PCR of muscularis mediator mRNAs, IL-10 treatment. The test is classed as in vivo, mice. The note with it: treated animals vs SM. As to the method: as §4
In test [8] the test system is mice subjected to surgical intestinal manipulation (SM). Description: Gastrointestinal transit (geometric center) after surgical intestinal manipulation, IL-10 treatment. The class given is in vivo. The note with it: SM + IL-10 12.5 μg/kg s.c. before and after; control=10.6±0.3, SM=4.6±0.6. On the procedure:
as §4

The test system of the next test is NO. The test is described as follows: Griess reaction NO release from muscularis, IL-10 treatment. The class given is in vivo, mice. The note with it: SM + IL-10; control=47.1, SM=607.7. As to the method: as §4
In test [9] the test system is prostanoids. The test is described as follows: ELISA prostanoid release from muscularis, IL-10 treatment. The test is classed as in vivo, mice. The note with it: SM + IL-10; control=4033.4, SM=13111. On the procedure: as §4
The next test concerns jejunal circular muscle. Description: Organ bath: jejunal circular muscle contractions to bethanechol, IL-10 treatment. The class given is in vivo, mice. The conditions noted are these: SM + IL-10 12.5 μg/kg s.c.; 100 μM bethanechol; SM alone 59.2±4.8%. On the procedure: as §4

In the case of `CC(C)[C@H](N)C(=O)O` [valine, reference compound], in the test with IL-6 mRNA, the “postoperative induction of IL-6 mRNA” value is “no effect”. In test [1], the “mean contractile force, bethanechol stimulated” value was found to be 2.1±0.2 g/mm2/s. Moreover, in [2], the “geometric center (GC) of gastrointestinal transit” value came out at 6.2±0.5. Further, in [3], the “infiltrating MPO positive leukocytes” value is recorded as 93±2.7 cells/field at 200×. Moreover, the “prostanoid release, fold of control, colon” value with prostanoids [4] (colonic muscularis 24 h organ culture, SM 3.1-fold) amounted to 1.5 fold. The “prostanoid release, fold of control, jejunum” value in the test with prostanoids [4] (jejunal muscularis 24 h organ culture, SM 5.9-fold) is 3.4 fold. For the same molecule, the “nitrite release, fold increase over control, colon” value in the test on nitrite (nitric oxide) (colonic muscularis 24 h organ culture, SM vehicle 10.9-fold) is given as 9.5 fold. Besides, the “nitrite release, fold increase over control, jejunum” value in the test on nitrite (nitric oxide) (jejunal muscularis 24 h organ culture, SM vehicle 11.4-fold) is recorded as 12.0 fold.

B1: interleukin-10 (protein, UniProt P18893 19-178, looked up)
Interleukin-10: SRGQYSREDNNCTHFPVGQSHMLLELRTAFSQVKTFFQTKDQLDNILLTDSLMQDFKGYLGCQALSEMIQFYLVEVMPQAEKHGPEIKEHLNSLGEKLKTLRMRLRRCHRFLPCENKSKAVEQVKSDFNKLQDQGVYKAMNEFDIFINCIEAYMMIKMKS
With B1, in test [5], the “mediator release (GM-CSF, VEGF, IL-1α, IL-6, MCP-1 and MIP-1α)” value was “significantly diminished”. In [6], the muscularis neutrophil recruitment entry is “significantly less”. Moreover, the “induction of IL-6, IL-1β and MCP 1 mRNAs after SM” value in test [7] was “less induction”. The “geometric center (GC) of gastrointestinal transit” value in test [8] is 10.8±0.4. In addition, in the test on NO, the NO release was found to be 49.1 µM/g. The “prostanoids (PG) release” value in the test on prostanoids [9] is 3946.7 pg/mL/mg. The “jejunal circular muscle contractions to bethanechol, % of control” value in the test with jejunal circular muscle is listed as 93.6±21.1%.
